# Entries after “also recorded” stand apart in the source; their conditions may differ.
# Key:
# [1] = tested on: BUN (blood urea nitrogen) and creatine; assay: Analysis of kidney function (serum BUN and creatine), oral administration of PC; assay type: in vivo, Wistar-Hanover rats; conditions: cisplatin 6 mg/kg i.p. alone (group 13), 6 days, FIG. 4
# Protocol: Cisplatin and phosphatidylcholne were used as same as Example 1. But, phosphatidylcholne was suspended in 100 mg/ml of distilled water.
# Thirty-six of 6-week-old adult male Wistar-Hanover rats (Nara-biotechnology, Seoul, Korea) were purchased and quarantined for 1 week and divided into 6 groups as shown in Table 4. They were maintained at 22±2° C. in 12 hour light dark cycle, and were given a normal laboratory diet (Purina. Korea) and fresh water ad libitum. Their body weight were 200˜220 g. After quarantine period, rats were fasted for 24 hours prior to injection of first phosphatidylcholine, but were allowed free access to water throughout.
# In all groups, saline and cisplatin were injected intraperitoneally and phosphatidylcholine was administered orally. […]
# Blood collected in Example <2-1> was centrifuged at 4000 rpm for 10 min and serum was separated. The level of BUN (blood urea nitrogen) and creatine in serum was measured.
# The level of BUN was measured by Urase-GLDH method (Laboratory reference values. Urea nitrogen (BUN). Rochester, Minn.: Mayo Foundation for Medical Education and Research; November 2010), creatine was measured by Jaffe method (Jaffe method, Lamb E et al, tiez textbook of clinical chemistry and molecular diagnosis, St. louis; elsevier saunders, 2006; 791-801) and the contents were measured Beckman Coulter AU5421 (Beckman Coulter, USA).
# [2] = Measurement of body weight change during the test period; assay type: in vivo, SD rats; conditions: for change of body weight: 6 days
# Protocol: 6-week aged male SD rats (albino S.D rat) were bought, stabilized for 1 week, and then divided into 6 groups noted in [table 1] for the test. Breeding environment conditions of 24±2° C., and 12-hour light-dark cycles were maintained, and non-antibiotic general solid feed was used.
# For all groups, an agent was administered through intraperitoneal injection.
# They were bred while changes in their body weights were measured for 6 days. Then, after they were euthanized, their blood samples 5 cc were collected by a cardiac puncture, and their kidneys were extracted for used in a test.
# During the test period, a body weight of the test group was measured.
# [3] = tested on: MDA (malondialdehyde) in kidney tissue; assay: Quantification of lipid peroxidation (MDA) in kidney tissue; assay type: in vivo, Wistar-Hanover rats; conditions: cisplatin 6 mg/kg i.p. only (group 13), FIG. 5
# Protocol: (§1) Kidney samples collected from example <2-1> were immediately removed, washed in 0.9% saline and weighed. The kidneys were the mince with scissors, were homogenized in 0.1M Tris-HCl buffer (pH 7.4). The homogenization was carried out in Teflon-glass homogenizer (Bandelin, Germany) to obtain 1:10 (w/v) dilution. The homogenate was stored at −70° C. until analysis.
# Degradation products of lipid peroxidate comprise a lot of carbonyl compounds and the representative is malondialdehyde, MDA. Therefore, the level of lipid peroxidation can be measured by quantification of MDA.
# For quantification of MDA, the method of Buege and Aust (1978) were used. The samples were centrifuged at 12,000 g at 4° C. for 15 min, then 0.3 ml supernatant was removed and mixed with 0.9 ml of 8% trichloroacetic acid (TCA). The sample was again centrifuged at 10,000 g at 4° C. for 5 min. A 1 ml aliquot of supernatant was added to 0.25 ml of 1% TBA, and the resulting solution was heated at 100° C. for 20 min. […] After centrifugation at 3,000 g at 4° C. for 5 min, 1 ml of the n-butanol phase was isolated and the absorbance at 532 nm was measured. The standard curve of MDA was calculated from the absorbance and the amount of MDA per weight of tissue was measured and it is shown in FIG. 5A.
# MDA content was calculated with MDA standards (Buege and Aust 1978).
# [4] = tested on: catalase, GPx (glutathione peroxidase), SOD (superoxide dismutase); assay: Activity of catalase, GPx, SOD in kidney tissue; assay type: in vivo, Wistar-Hanover rats; conditions: cisplatin 6 mg/kg i.p. only (group 13), FIG. 7
# Protocol: as §1
# The activities of catalase, GPx, SOD which are anti-oxidative enzymes in kidney tissue were measured by a commercial kit.
# Since catalase decomposes H2O2 into water and oxygen, the activity of CAT was measured through decreased absorbance by decomposition of H2O2. The absorbance was measured by using catalase assay kit (Sigma, CAT #100).
# The activity of GPx was measured by using Glutathione peroxidase cellular activity assay kit CGP-1 (Sigma Aldrich, Cat. #CGP1). […] The decrease in NADPH absorbance measured at 340 nm, during the oxidation of NADPH to NADP is was indicative of GPx activity.
# The activity of SOD is measured using the SOD assay kit (19160 SOD determination kit, Fluka/sigma Aldrich). The amount inhibiting 50% of xanthine oxidase activity per 1 mg of protein was set as 1 unit and the absorbance was measured at 450 nm.
# kidney tissues = assay: Observation of a morphological change in kidney tissues (H&E, optical microscope); assay type: in vivo, SD rats; conditions: CDDP 5 mg/kg i.p. alone (group 3), FIG. 3-B
# From the text: A rats kidney obtained from Example <1-1> was fixed in 10% neutral formalin, sliced by microtechnique, and subjected to haematoxylin & eosin staining through a general tissue processing process. Each of the stained kidney tissues was observed by an optical microscope.
# [5] = tested on: GSH (glutathione) in kidney tissue; assay: Quantification of GSH (glutathione) in kidney tissue; assay type: in vivo, Wistar-Hanover rats; conditions: cisplatin 6 mg/kg i.p. only (group 13), FIG. 6
# Protocol: as §1
# The total GSH content of kidney tissue prepared in the Example <2-3> was determined using a modification of the method of Beutler et al. (Beutler, Duron et al. 1963). The method uses principle that when DTNB (5′5-dithiobis-2-nitro-benzoic acid) and GHS react, 2-nitro-5-thiobenzoic acid (yellow color) are produced. Therefore, the concentration of GSH can be determined by measuring absorbance at 412 nm.
# A mitochondrial fraction was prepared by centrifugation at 600 g for 5 mins and samples were added to 5% of metaphosphoric acid (MPA) and allowed to stand for 5 mins to precipitate proteins. 1M of Phosphate buffer (pH 7.0) was added to proteins in the volumetric ratio of 1:4 for homogenization and DTNB (5′5-dithiobis-2-nitro-benzoic acid) were added to proteins in the volumetric ratio of 8:5 for color development. GSH was determined by measuring absorbance at 415 nm (shimadzu UV-1240) and absolute concentrations were calculated using a GSH standard (Sigma, USA).
# rats = assay: Lethality after 6 days, CDDP with or without PC; assay type: in vivo, SD rats; conditions: PC 400 mg/kg i.p. alone (group 8)
# Protocol: As noted in [table 3], a test group was prepared, and administered with a drug. After 6 days, lethality was calculated. An administration method, a test animal and a breeding method, etc. were the same as those in Example <1-1>.
# [6] = tested on: BUN (blood urea nitrogen) and creatinine; assay: Test on a kidney function (serum BUN and creatinine), cisplatin nephrotoxicity, intra-peritoneal PC; assay type: in vivo, SD rats; conditions: PC i.p. 1 hour after CDDP 5 mg/kg i.p.
# Protocol: The separated serum was used to measure BUN (blood urea nitrogen) and creatinine.
# The measurement of BUN was carried out by using a BUN measuring kit (Young dong diagnostics) in the same manner as described below. A urea agent 0.1 ml was mixed with buffer 20 ml to prepare enzyme buffer, and the prepared enzyme buffer was added to each of 2 test tubes. To one of the test tubes, a to-be-tested serum sample 0.02 ml was added, and to the other test tube, a control reference solution [containing urea-N 60 mg/100 ml] 0.02 ml was added, followed by culturing at 37° C. for 15 min. Then, each test tube was added with chromogenic solution 2 ml, and cultured at 37° C. for 5 min again. By measuring the absorbance at 570 nm, the level of produced BUN was measured.
# The measurement of creatinine was carried out by using a creatinine measuring kit (young dong diagnostics) in the same manner as described below. […] Exactly after 15 min, at 515 nm, absorbency was measured.
# ICR mice = assay: Lethality reducing effect by paclitaxel (LD50 of paclitaxel with PC pretreatment); assay type: in vivo; conditions: PC 0, 300, 600 mg/kg i.p. 4 hours before Taxol i.p.; lethality after 24 hours, FIG. 8; listed as phosphatidylcholine
# Protocol: 6-week aged ICR mice (Samtako, Korea) were bought, and divided into 15 groups noted in table 5. They were stabilized for 20 hrs under conditions of 24±2° C., and 12-hour light-dark cycles while being fed with non-antibiotic general solid feed. […] After being stabilized, the mice were intra-peritoneally injected with the same phosphatidylcholine as that used in <Example 1-1>. After 4 hours, Taxol™ (BMS©, paclitaxel 6 mg/ml) was intra-peritoneally injected to the mice in which its amount was adjusted in such a manner that paclitaxel can be administered in an amount noted in table 5 below.
# After 24 hours from administration of taxol, lethality of mice was measured. Based on the measured data on lethality, LD50 (a paclitaxel dose at lethality of 50%) in each of A, B, and C groups was measured.
SMILES,BUN level in serum [1],creatine level in serum [1],change of body weight ([2]; CDDP 5 mg/kg i.p. alone (group 3)),"change of body weight ([2]; CDDP 5 mg/kg i.p. alone (group 3), listed as cisplatin)","body weight decreased by ([2]; CDDP 5 mg/kg i.p. alone (group 3), test period)",MDA level in kidney tissue [3],"levels of the anti-oxidative enzymes (catalase, GPx, SOD) in kidney tissue [4]",morphological change in kidney tissues (kidney tissues),level of glutathione in kidney tissue [5],lethal rate (rats),change of body weight ([2]; PC 400 mg/kg i.p. alone (group 2)),PC dose at which nephrotoxicity caused by CDDP was reduced [6],LD50 of paclitaxel (ICR mice)
"N.N.[Cl][Pt][Cl] [CDDP, cis-dichlorodiammineplatinum]",increase,increase,−7.1%,reduction in body weight,about 7.1%,very high compared to control group 11,significantly reduced compared to control group 11,most epithelial cells in a proximal part and a distal part of the kidney showed a necrotic change through an inflammatory reaction,significantly low compared to control group 11,–,–,–,–
"CCCCC/C=C/CCCCCCCC(=O)OC(COC(=O)CCCCCCCCCCCCC)COP(=O)([O-])OCC[N+](C)(C)C [PC, 1,2-diacyl-L-3-glycerylphosphorylcholine]",–,–,–,–,–,–,–,–,–,0%,+9.2%,≥ 600 mg/kg,tends to increase; also recorded: increases depending on dosage of phosphatidylcholine
